Measured values taken from patent US20260131007A1, “Mannose 6-Phosphate Receptor Binding Compounds for the Degradation of Extracellular Proteins” (Avilar Therapeutics, Inc., priority 2023, published 2026).
Where a name gives a salt, the structure may show the parent alone.

Molecular target: T1, Insulin-like growth factor 2 receptor (IGF-1IR, cation-independent mannose-6-phosphate receptor, CI-MPR; hIGF-IIR) (Homo sapiens, UniProt P11717)
T1 construct: purchased R&D Systems 6418-GR
Test: HTRF-based ternary complex inhibition assay for relative affinity of IGF-IIR ligands
Details: competition with MTAC probe for His-tagged hIGF-IIR; biotinylated IgG1; apparent binding affinity; read-out: TCF INH (HTRF) IC50
Method: The apparent binding affinity of Insulin-like growth factor 2 receptor (IGF-1IR, also called the cation- independent mannose-6-phosphate receptor (CI-MPR)) ligands was determined indirectly by competing with a probe molecule for binding to IGF-1IR. The probe is a Mannose 6-Phosphate Ligand (“Ligand”) and binds to hIGF-IIR and IgG1 to form a hIGF-IIR: Ligand: IgG1 ternary complex. The ternary complex was detected by an HTRF readout. The ternary complex is disrupted in the presence of IGF-1IR ligand, resulting in decreased HTRF signal. IGF-1IR ligands of 3-fold dilution series were prepared from 10 mM DMSO stock on a 384-well LDV microplate using Echo Acoustic Liquid Handler (Beckman Coulter Life Sciences) followed by transfer of 600 nL of the solutions to an OptiPlate 384-well microplate (PerkinElmer, 6007290). Manose-6-phosphate (M6P; J&K, 530168) and glucose-6-phosphate (G6P; Sigma, V900924) were prepared from 100 mM stock in the same manner and were used as positive and negative controls, respectively. The wells used as 0% and 100% inhibition controls were prepared by adding 600 nL DMSO. 20 nL of 50 μM MTAC probe was transferred to all wells except the wells used as 100% Inhibition control. 9.4 μL working solution containing 65.1 nM of Biotinylated-IgG1 (Viva 20211108) and 65.1 nM of His-tagged hIGF-IIR (R&D Systems, 6418-GR) in assay buffer 50 mM Tris, pH 7.5, 150 mM NaCl, 50 mM CaCl2, 0.01% Tween-20 was transferred to all wells. The plate was incubated at room temperature for 60 min with gentle shaking to allow molecular interaction to reach equilibration. Following this, 10 μL of HTRF detection solution containing 15 nM Streptavidin-d2 (PerkinElmer, 610SADLA) and 0.7 nM MAb Anti 6HIS—Tb cryptate (PerkinElmer, 61HISTLA) in PPI Terbium detection buffer (PerkinElmer, 61DB10RDF) was added. The assay plate was incubated at room temperature with gentle shaking for 60 min to allow HTRF signal to develop. The plate was gently spun on a centrifuge then placed on a EnVision plate reader (Perkin Elmer, EnVision 2104) to read fluorescence ratio of 665 nm/615 nm. Percent inhibitions were calculated with this equation: % I=100* [1−(X−100% I/(0% I−100% I)] where X is the […] in the presence of IGF-1IR ligand. The apparent binding affinity (presented as IC50) was calculated by fitting the % inhibition data with a non-linear 4-parameter inhibition equation using GraphPad Prism (GraphPad Software, LLC; version 9.4.1).

O=P(O)(O)CC[C@H]1O[C@H](c2cn(CCc3ccccc3)nn2)[C@@H](O)[C@@H](O)[C@@H]1O [Compound A17, (2-((2R,3S,4S,5S,6R)-3,4,5-trihydroxy-6-(1-phenethyl-1H-1,2,3-triazol-4-yl)tetrahydro-2H-pyran-2-yl)ethyl)phosphonic acid]
IC50: < 10 µM

C[Si](C)(C)C#C[C@H]1O[C@H](CCP(=O)(O)O)[C@@H](O)[C@H](O)[C@@H]1O [Compound A18, (2-((2R,3S,4S,5S,6R)-3,4,5-trihydroxy-6-((trimethylsilyl)ethynyl)tetrahydro-2H-pyran-2-yl)ethyl)phosphonic acid]
IC50: < 10 µM

O=P(O)(O)CC[C@H]1O[C@H](Oc2ccc3c(c2)Cc2ccccc2-3)[C@@H](O)[C@@H](O)[C@@H]1O [Compound A19, (2-((2R,3S,4S,5S,6R)-6-((9H-fluoren-2-yl)oxy)-3,4,5-trihydroxytetrahydro-2H-pyran-2-yl)ethyl)phosphonic acid]
IC50: < 10 µM

C#C[C@H]1O[C@H](CCP(=O)(O)O)[C@@H](O)[C@H](O)[C@@H]1O [Compound A20, (2-((2R,3S,4S,5S,6R)-6-ethynyl-3,4,5-trihydroxytetrahydro-2H-pyran-2-yl)ethyl)phosphonic acid]
IC50: < 10 µM

O=P(O)(O)CC[C@H]1O[C@H](/C=C/c2ccccc2)[C@@H](O)[C@@H](O)[C@@H]1O [Compound A21, (2-((2R,3S,4S,5S,6R)-3,4,5-trihydroxy-6-((E)-styryl)tetrahydro-2H-pyran-2-yl)ethyl)phosphonic acid]
IC50: 10 to 100 µM

O=P(O)(O)CC[C@H]1O[C@H](Oc2ccc3c(c2)Cc2cc(O)ccc2-3)[C@@H](O)[C@@H](O)[C@@H]1O [Compound A22, (2-((2R,3S,4S,5S,6R)-3,4,5-trihydroxy-6-((7-hydroxy-9H-fluoren-2-yl)oxy)tetrahydro-2H-pyran-2-yl)ethyl)phosphonic acid]
IC50: < 10 µM

NC[C@H]1O[C@H](O)[C@@H](O)[C@@H](O)[C@@H]1O [Compound A41, (2S,3S,4S,5S,6R)-6-(aminomethyl)tetrahydro-2H-pyran-2,3,4,5-tetraol hydrochloride]
IC50: 10 to 100 µM

O=P(O)(CC[C@H]1O[C@H](Oc2ccccc2)[C@@H](O)[C@@H](O)[C@@H]1O)Cc1c(F)cccc1F [Compound A42, (2,6-difluorobenzyl) (2-((2R,3S,4S,5S,6R)-3,4,5-trihydroxy-6-phenoxytetrahydro-2H-pyran-2-yl)ethyl)phosphinic acid]
IC50: < 10 µM

O=P(O)(O)C1CC1[C@H]1O[C@H](Oc2ccccc2)[C@@H](O)[C@@H](O)[C@@H]1O (stereo partly drawn) [Compound A43, [2-[(2R,3S,4S,5S,6R)-3,4,5-trihydroxy-6-phenoxy-tetrahydropyran-2-yl]cyclopropyl]phosphonic acid]
IC50: 10 to 100 µM

CP(=O)(O)CC[C@H]1O[C@H](Oc2ccccc2)[C@@H](O)[C@@H](O)[C@@H]1O [Compound A44, methyl(2-((2R,3S,4S,5S,6R)-3,4,5-trihydroxy-6-phenoxytetrahydro-2H-pyran-2-yl)ethyl)phosphinic acid]
IC50: 10 to 100 µM

COCP(=O)(O)CC[C@H]1O[C@H](Oc2ccccc2)[C@@H](O)[C@@H](O)[C@@H]1O [Compound A45, methoxymethyl-[2-[(2R,3S,4S,5S,6R)-3,4,5-trihydroxy-6-phenoxy-tetrahydropyran-2-yl]ethyl]phosphinic acid]
IC50: 10 to 100 µM

O=P(O)(CC[C@H]1O[C@H](Oc2ccccc2)[C@@H](O)[C@@H](O)[C@@H]1O)Cc1ccccc1O [Compound A46, (2-hydroxybenzyl) (2-((2R,3S,4S,5S,6R)-3,4,5-trihydroxy-6-phenoxytetrahydro-2H-pyran-2-yl)ethyl)phosphinic acid]
IC50: < 10 µM

O=P(O)(CC[C@H]1O[C@H](OC2CCCCC2)[C@@H](O)[C@@H](O)[C@@H]1O)Cc1ccccc1O [Compound A47, 2-[(2R,3S,4S,5S,6S)-6-(cyclohexoxy)-3,4,5-trihydroxy-tetrahydropyran-2-yl]ethyl-[(2-hydroxyphenyl)methyl]phosphinic acid]
IC50: 10 to 100 µM

COc1ccc(OC2O[C@H](CCP(=O)(O)CC#N)[C@@H](O)[C@H](O)[C@@H]2O)cc1 (stereo partly drawn) [Compound A48, (cyanomethyl) (2-((2R,3S,4S,5S)-3,4,5-trihydroxy-6-(4-methoxyphenoxy)tetrahydro-2H-pyran-2-yl)ethyl)phosphinic acid]
IC50: 10 to 100 µM

COc1ccc(OC2O[C@H](CCP(=O)(O)Cc3ccccc3C#N)[C@@H](O)[C@H](O)[C@@H]2O)cc1 (stereo partly drawn) [Compound A49, (2-cyanophenyl)methyl-[2-[(2R,3S,4S,5S)-3,4,5-trihydroxy-6-(4-methoxyphenoxy)tetrahydropyran-2-yl]ethyl]phosphinic acid]
IC50: < 10 µM

COc1ccc(OC2O[C@H](CCP(=O)(O)Cc3ccccn3)[C@@H](O)[C@H](O)[C@@H]2O)cc1 (stereo partly drawn) [Compound A50, (pyridin-2-ylmethyl) (2-((2R,3S,4S,5S)-3,4,5-trihydroxy-6-(4-methoxyphenoxy)tetrahydro-2H-pyran-2-yl)ethyl)phosphinic acid]
IC50: < 10 µM

COc1ccc(O[C@H]2O[C@H](CCP(=O)(O)Cc3c(F)cccc3Cl)[C@@H](O)[C@H](O)[C@@H]2O)cc1 [Compound A51, (2-chloro-6-fluorobenzyl) (2-((2R,3S,4S,5S,6R)-3,4,5-trihydroxy-6-(4-methoxyphenoxy)tetrahydro-2H-pyran-2-yl)ethyl)phosphinic acid]
IC50: < 10 µM

C=CCP(=O)(O)CC[C@H]1OC(Oc2ccc(OC)cc2)[C@@H](O)[C@@H](O)[C@@H]1O (stereo partly drawn) [Compound A52, allyl(2-((2R,3S,4S,5S)-3,4,5-trihydroxy-6-(4-methoxyphenoxy)tetrahydro-2H-pyran-2-yl)ethyl)phosphinic acid]
IC50: 10 to 100 µM

CC#CCP(=O)(O)CC[C@H]1OC(Oc2ccc(OC)cc2)[C@@H](O)[C@@H](O)[C@@H]1O (stereo partly drawn) [Compound A53, but-2-yn-1-yl(2-((2R,3S,4S,5S)-3,4,5-trihydroxy-6-(4-methoxyphenoxy)tetrahydro-2H-pyran-2-yl)ethyl)phosphinic acid]
IC50: 10 to 100 µM

COc1ccc(O[C@H]2O[C@H](CCP(=O)(O)Cc3c(F)ccc(F)c3F)[C@@H](O)[C@H](O)[C@@H]2O)cc1 [Compound A54, (2,3,6-trifluorobenzyl) (2-((2R,3S,4S,5S)-3,4,5-trihydroxy-6-(4-methoxyphenoxy)tetrahydro-2H-pyran-2-yl)ethyl)phosphinic acid]
IC50: < 10 µM

COc1ccc(O[C@H]2O[C@H](CCP(=O)(O)Cc3c(F)cc(F)cc3F)[C@@H](O)[C@H](O)[C@@H]2O)cc1 [Compound A55, (2,4,6-trifluorobenzyl) (2-((2R,3S,4S,5S)-3,4,5-trihydroxy-6-(4-methoxyphenoxy)tetrahydro-2H-pyran-2-yl)ethyl)phosphinic acid]
IC50: 10 to 100 µM

COc1ccc(OC2O[C@H](CCP(=O)(O)CC3CC3)[C@@H](O)[C@H](O)[C@@H]2O)cc1 (stereo partly drawn) [Compound A56, (cyclopropylmethyl) (2-((2R,3S,4S,5S)-3,4,5-trihydroxy-6-(4-methoxyphenoxy)tetrahydro-2H-pyran-2-yl)ethyl)phosphinic acid]
IC50: < 10 µM

CCCP(=O)(O)CC[C@H]1OC(Oc2ccc(OC)cc2)[C@@H](O)[C@@H](O)[C@@H]1O (stereo partly drawn) [Compound A57, propyl(2-((2R,3S,4S,5S)-3,4,5-trihydroxy-6-(4-methoxyphenoxy)tetrahydro-2H-pyran-2-yl)ethyl)phosphinic acid]
IC50: < 10 µM

COc1ccc(OC2O[C@H](CCP(=O)(O)CC3CC3(F)F)[C@@H](O)[C@H](O)[C@@H]2O)cc1 (stereo partly drawn) [Compound A58, ((2,2-difluorocyclopropyl)methyl) (2-((2R,3S,4S,5S)-3,4,5-trihydroxy-6-(4-methoxyphenoxy)tetrahydro-2H-pyran-2-yl)ethyl)phosphinic acid]
IC50: < 10 µM
